Reference: publication PMC6277767, “Broad and Region-Specific Impacts of the Synthetic Cannabinoid CP 55,940 in Adolescent and Adult Female Mouse Brains” (Frontiers in Molecular Neuroscience, 2018)

Test system: CD1 female mouse brain lipidome
Assay: Brain-region lipid levels (HPLC/MS/MS lipidomics) 2 h after single i.p. 3 mg/kg CP 55,940 vs vehicle
Assay type: in vivo
Design: N-arachidonoyl phenylalanine level, Mean / N-stearoyl tryptophan level, Mean / N-stearoyl proline level, Mean / N-stearoyl leucine level, Mean / N-stearoyl phenylalanine level, Mean / N-stearoyl serine level, Mean / N-stearoyl methionine level, Mean: unit: moles per gram
Experimental: The Bloomington Institutional Animal Care and Use Committee of Indiana University reviewed and approved the animal procedures. Female mice from the CD1 strain were utilized to match our study examining THC’s effects on the brain lipidome ([Leishman et al., 2018]). Mice were given a single i.p. injection of either 3 mg/kg CP or 1:1:18 cremophor:ethanol:saline vehicle (please refer to the section “3 mg/kg CP Is Relevant for Synthetic Cannabinoid Abuse and Has Stronger Effects on the Female Mouse Brain Lipidome During Adolescence” for a justification of dose and use of female mice). Three different age groups were given injections: PND 35 and PND 50 adolescents, and adult mice (PND 113). At least eight mice in each age group received CP and at least eight received vehicle. Matching the THC study time course ([Leishman et al., 2018]), mice were sacrificed via rapid decapitation 2 h after injection. Brains were immediately removed and flash-frozen in liquid nitrogen, and then stored at -80°C until dissections were performed. Brains were dissected on an ice-cold dissection plate into the following regions: STR, HIPP, CER, THAL, CTX, HYP, MID, and STEM. These abbreviations for these brain areas will be used exclusively when discussing the results generated by these specific dissections. Each dissected area was immediately placed in liquid nitrogen and then stored at -80°C until used for lipid extraction.
Tissue extracts were performed as previously described ([Bradshaw et al., 2006]; [Stuart et al., 2013]; [Raboune et al., 2014]; [Leishman et al., 2016a],[b], [2017], [2018]). First, samples were shock frozen in liquid nitrogen, weighed, and transferred to a centrifuge tube. The mass of the largest sample was multiplied by 50 to determine how many milliliters of HPLC-grade methanol (Fisher, Fair Lawn, NJ, United States) to add. Then, samples were spiked with 500 pmol deuterium-labeled NAGly (d8NAGly; Cayman Chemical, Ann Arbor, MI, United States). Samples were placed on ice in darkness for 2 h then individually homogenized and centrifuged at 19,000 × g for 20 min at 20°C. Supernatants were diluted with HPLC water (purified in house) to make a solution of 75% water, 25% supernatant. Lipids were partially purified on C18 solid phase extraction columns (Agilent, Palo Alto, CA, United States). A series of four elutions with 1.5 mL of 60%, 75%, 85%, and 100% methanol were collected ([Stuart et al., 2013]; [Leishman et al., 2016a],[b], [2018]).
As previously described ([Bradshaw et al., 2006]; [Tan et al., 2006]; [Smoum et al., 2010]; [Stuart et al., 2013]; [Tortoriello et al., 2013]; [Raboune et al., 2014]; [Leishman et al., 2016a],[b], [2017], [2018]), samples were analyzed using an Applied Biosystems API 3000 triple quadrupole mass spectrometer with electrospray ionization (Foster City, CA, United States). Using an Agilent XDB-C18 reversed phase analytical column and optimized mobile phase gradients, 20 μL from each elution were chromatographed. Two Shimadzu 10ADvp pumps (Columbia, MD, United States) provided the pressure for gradient elution. Mobile phase A: 20% methanol, 80% water (v/v) and 1 mM ammonium acetate (Sigma, St. Louis, MO, United States). Mobile phase B: 100% methanol, 1 mM ammonium acetate. Every method run began with 0% mobile phase B, reached 100% mobile phase B flowing at 0.2 mL/min, and gradually returned to 0% mobile phase B.
This screening library will be referred to as the lipidome when discussing data from this study. HPLC/MS/MS data were analyzed using Analyst software (Applied Biosystems) ([Bradshaw et al., 2006]; [Tan et al., 2006]; [Stuart et al., 2013]; [Tortoriello et al., 2013]; [Raboune et al., 2014]; [Leishman et al., 2016a],[b], [2017], [2018]). Chromatograms (Supplementary Figure 3) were generated by determining the retention time of analytes from the analytical column with a [M-1] or [M+1] parent peak and a fragmentation peak corresponding to the programmed values. […]

[1] = adult female mice, brainstem, 3mg/kg CP 55,940
[2] = adult hypothalamus, 3 mg/kg CP 55,940

CCCCCCC(C)(C)c1ccc([C@@H]2C[C@H](O)CC[C@H]2CCCO)c(O)c1 [CP 55,940]
6-ketoPGF1α level, Mean [1]: 2.07E-11 | Arachidonic acid level, Mean [1]: 4.08E-10 | Linoleic acid level, Mean [1]: 4.56E-10 | N- stearoyl valine level, Mean [1]: 2.21E-14 | N-arachidonoyl proline level, Mean [1]: BDL | N-arachidonoyl serine level, Mean [1]: PISSR | N-arachidonoyl taurine level, Mean [1]: 2.62E-11 | N-arachidonoyl tryptophan level, Mean [1]: BDL | N-arachidonoyl tyrosine level, Mean [1]: 6.33E-13 | N-docosahexaenoyl proline level, Mean [1]: BDL | N-docosahexaenoyl serine level, Mean [1]: PISSR | N-docosahexaenoyl tryptophan level, Mean [1]: BDL | N-docosahexaenoyl tyrosine level, Mean [1]: 5.03E-13 | N-docosahexaenoyl valine level, Mean [1]: BDL | N-linoleoyl proline level, Mean [1]: BDL | N-linoleoyl serine level, Mean [1]: 1.98E-11 | N-linoleoyl tryptophan level, Mean [1]: BDL | N-linoleoyl tyrosine level, Mean [1]: PISSR | N-linoleoyl valine level, Mean [1]: PISSR | N-nervonoyl valine level, Mean [1]: BDL | N-oleoyl proline level, Mean [1]: BDL | N-oleoyl serine level, Mean [1]: 1.03E-10 | N-oleoyl tryptophan level, Mean [1]: BDL | N-oleoyl tyrosine level, Mean [1]: 5.06E-13 | N-oleoyl valine level, Mean [1]: 1.48E-14 | N-palmitoyl proline level, Mean [1]: BDL | N-palmitoyl serine level, Mean [1]: 1.08E-11 | N-palmitoyl tryptophan level, Mean [1]: BDL | N-palmitoyl tyrosine level, Mean [1]: 7.4E-13 | N-palmitoyl valine level, Mean [1]: 1.28E-13 | N-stearoyl proline level, Mean [1]: BDL | N-stearoyl serine level, Mean [1]: 1.31E-11 | N-stearoyl tryptophan level, Mean [1]: BDL | Oleic acid level, Mean [1]: 4.28E-10 | PGE2 level, Mean [1]: 1.64E-10 | PhosphoLEA level, Mean [1]: 2.15E-12 | 2-arachidonoyl glycerol level, Mean [2]: 2.11E-09 | 2-linoleoyl glycerol level, Mean [2]: 1.7E-10 | 2-oleoyl glycerol level, Mean [2]: 1.71E-09 | 2-palmitoyl glycerol level, Mean [2]: 1.78E-10 | 6-ketoPGF1α level, Mean [2]: 2.15E-11 | 11-OH-THC level, Mean [2]: BDL | 11-nor-9-carboxyTHC level, Mean [2]: BDL | Arachidonic acid level, Mean [2]: 6.14E-10 | Cannabidiol level, Mean [2]: BDL | Linoleic acid level, Mean [2]: 1.2E-10 | N-arachidonoyl GABA level, Mean [2]: 2.05E-11 | N-arachidonoyl dopamine level, Mean [2]: BDL | N-arachidonoyl ethanolamine level, Mean [2]: 6.61E-12 | N-arachidonoyl glycine level, Mean [2]: 2.96E-13 | N-arachidonoyl methionine level, Mean [2]: BDL | N-arachidonoyl phenylalanine level, Mean [2]: 1.34E-13 | N-arachidonoyl proline level, Mean [2]: BDL | N-arachidonoyl serine level, Mean [2]: BDL | N-arachidonoyl taurine level, Mean [2]: 1.91E-11 | N-arachidonoyl tryptophan level, Mean [2]: BDL | N-docosahexaenoyl ethanolamine level, Mean [2]: 1.18E-11 | N-docosahexaenoyl methionine level, Mean [2]: BDL | N-docosahexaenoyl proline level, Mean [2]: BDL | N-docosahexaenoyl tryptophan level, Mean [2]: BDL | N-docosahexaenoyl valine level, Mean [2]: BDL | N-linoleoyl GABA level, Mean [2]: BDL | N-linoleoyl ethanolamine level, Mean [2]: 6.58E-12 | N-linoleoyl methionine level, Mean [2]: BDL | N-linoleoyl proline level, Mean [2]: BDL | N-linoleoyl serine level, Mean [2]: 1.16E-10 | N-linoleoyl tryptophan level, Mean [2]: BDL | N-linoleoyl tyrosine level, Mean [2]: BDL | N-linoleoyl valine level, Mean [2]: BDL | N-nervonoyl valine level, Mean [2]: BDL | N-oleoyl alanine level, Mean [2]: 4.79E-12 | N-oleoyl dopamine level, Mean [2]: BDL | N-oleoyl ethanolamine level, Mean [2]: 7.29E-11 | N-oleoyl glycine level, Mean [2]: 2.66E-13 | N-oleoyl methionine level, Mean [2]: BDL | N-oleoyl phenylalanine level, Mean [2]: 5E-13 | N-oleoyl proline level, Mean [2]: BDL | N-oleoyl serine level, Mean [2]: 5.82E-10 | N-oleoyl tryptophan level, Mean [2]: BDL | N-palmitoyl GABA level, Mean [2]: 3.12E-11 | N-palmitoyl alanine level, Mean [2]: 2.7E-12 | N-palmitoyl ethanolamine level, Mean [2]: 2.56E-11 | N-palmitoyl glycine level, Mean [2]: 2.34E-12 | N-palmitoyl leucine level, Mean [2]: 1.88E-12 | N-palmitoyl methionine level, Mean [2]: BDL | N-palmitoyl phenylalanine level, Mean [2]: 3.42E-13 | N-palmitoyl proline level, Mean [2]: BDL | N-palmitoyl tryptophan level, Mean [2]: BDL | N-palmitoyl tyrosine level, Mean [2]: 1.11E-12 | N-palmitoyl valine level, Mean [2]: 1.56E-13 | N-stearoyl alanine level, Mean [2]: 2.77E-12 | N-stearoyl ethanolamine level, Mean [2]: 7.07E-12 | N-stearoyl glycine level, Mean [2]: 2.2E-12 | N-stearoyl leucine level, Mean [2]: 1.65E-12 | N-stearoyl methionine level, Mean [2]: BDL | N-stearoyl phenylalanine level, Mean [2]: 2.86E-13 | N-stearoyl proline level, Mean [2]: BDL | N-stearoyl serine level, Mean [2]: 4.88E-11 | N-stearoyl tryptophan level, Mean [2]: BDL | Oleic acid level, Mean [2]: 2.14E-10 | PGE2 level, Mean [2]: 2.25E-10 | PhosphoLEA level, Mean [2]: 5.73E-11
